System: RAW264.7 cells
Test: Introduction of SOD1 fusion proteins into RAW264.7 cells
Format: cell-based
Conditions: 0.5 uM, 2 hours
Description: SOD1, which is widely known as an antioxidant enzyme, was fused with a cell-penetrating peptide, and the cell-penetrating ability and activity maintenance were evaluated using RAW264.7 cells. The recombinant proteins SOD1, SOD1-TAT, and SOD1-RMAD1 were treated at the same concentration of 0.5 uM to RAW264.7 cells for 2 hours.

SOD1: antioxidant enzyme, recombinant control protein
level of cell penetration: did not penetrate cells

— patent US20240207162A1, “CARGO MOLECULE TRANSDUCTION DOMAIN RMAD1, VARIANT THEREOF, RECOMBINANT CARGO MOLECULE, AND METHOD FOR TRANSDUCING CARGO MOLECULE USING SAME” (REMEDI CO., LTD., priority 2021, published 2024)
